Experimental data as given in patent US20230090255A1, “MAGL INHIBITOR, PREPARATION METHOD THEREFOR AND USE THEREOF” (LUNAN PHARMACEUTICAL GROUP CORPORATION, priority 2019, published 2023).
Structures can show the parent of a compound that is named as a salt.

Assays:
[1] = tested on: mice forced swimming test; assay: Mice forced swimming test; type: in vivo, ICR mice; details: for Accumulated immobility time: forced swimming, 6 min, 5 mg/kg intragastric once per day 10 d, 1 h after final administration
Method: (§1) Male ICR mice having a body weight of 18-22 g. The animals were active on a schedule of normal illumination for 12 h and in the dark for 12 h. Environmental temperature and relative humidity were relatively kept for 22±1° C. and 55±5%.
(§2) There were 7 groups of laboratory mice, 10 pieces each group, set as a control group (normal saline), a positive control group (fluoxetine hydrochloride capsule, 5 mg/kg), 5 MAGLZ-II series of administration treatment groups: MAGLZ-II-06, MAGLZ-II-07, MAGLZ-II-11, MAGLZ-II-17 and MAGLZ-II-18, respectively, with an administration concentration of 5 mg/kg.
(§3) All medicaments were used once per day via intragastric administration with a dose of 20 mL/kg (body weight), lasting for 10 d. 1 h later after the final administration, the detection of animal behaviors was started.
Mice forced swimming test was performed according to the method established by Porsolt (Porsolt R D. Behavioural despair in mice: A primary screening test for antidepressants[J]. Arch. Int. Pharmacolodyn. 1977, 229). […] Each mouse was judged as still when stopped struggling, kept suspension in water and only made necessary movement to keep the head above the water.
(§4) All data are shown by x̅±SD, and the comparison among groups is analyzed by one-way variance.

[2] = tested on: mice tail suspension test; assay: Mice tail suspension test; type: in vivo, ICR mice; details: final 4 min of 6 min, 5 mg/kg intragastric once per day 10 d
Method: as §1, §2, §3
The tail suspension test (TST) was performed by the method established by Porsolt, et al. (Porsolt R D, Le Pichon M, Jalfre M. Depression: a new animal model sensitive to antidepressant treatments[J]. Nature, 1977, 266(5604):730-732). Mice were respectively suspended on the tail portions with tail suspension clamps at a distance of 10 mm away from the tail portion of the box (250 mm×250 mm×300 mm) and a distance of 5 cm where the head of each mouse was away from the bottom portion. Noise was tested in a dark room having minimum background, and each mouse was suspended for 6 min, and an immobility time was recorded at intervals in the final 4 min. Judgment standard: the mice stopped struggling and kept still completely.
as §4

[3] = molecular target: T1, recombinant human protein MAGL (Homo sapiens, UniProt Q99685); assay: MAGL enzyme analysis (Cayman MAGL inhibitor screening kit); type: biochemical; details: 4-nitrophenylacetic acid substrate, absorbance 410 nm, read-out: MAGLXIC50
T1 construct: purchased Cayman
T1 sequence (Q99685 1-303): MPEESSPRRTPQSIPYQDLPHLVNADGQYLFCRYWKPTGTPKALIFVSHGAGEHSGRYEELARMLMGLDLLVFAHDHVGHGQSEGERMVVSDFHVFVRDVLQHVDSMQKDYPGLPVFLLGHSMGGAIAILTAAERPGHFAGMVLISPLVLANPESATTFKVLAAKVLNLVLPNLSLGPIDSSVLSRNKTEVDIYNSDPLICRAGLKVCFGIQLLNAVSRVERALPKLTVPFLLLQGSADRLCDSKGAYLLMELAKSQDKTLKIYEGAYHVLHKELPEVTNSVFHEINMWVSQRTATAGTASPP
Method: 150 µL 1Xassay buffer, 10 µL recombinant human protein MAGL and 10 µL different concentrations of MAGL inhibitors (six points within 1 nM to 1000 nM) were added to per well of a 96-well plate. JZL195 (a positive control inhibitor) served as a positive control well, after incubation for 5 min at room temperature, per well was added with 10 µL MAGL substrate, and […] were vibrated for 10 s and placed for 10 min at room temperature, then an absorbance was detected at 410 nm. […] Graphad Prism 5.0 was taken to calculate IC50 curves fitting each inhibitor.

[4] = Tissue distribution test in mice; type: in vivo; set-up: content in the brain (tissue distribution): unit not given here; details: 16 mg/kg subcutaneous injection
[5] = tested on: reserpine-induced mice depression; assay: Reserpine-induced mice depression; type: in vivo, ICR mouse; set-up: Awakening / Finger contact / Head touch / Fear / Autonomic activity / Eyelid closure / Upright: scale not given here; details: for Eyelid closure: 2 h after reserpine 4 mg/kg
Method: • Species: ICR mouse • Microbiological level: SPF • Quantity and sex of the animals purchased: male: 75; female: 75 • Quantity and sex of the animals used: male: 75; female: 75 • Body weight: 13-18 g when accepted
Group design: there were 50 pieces for each batch of animals and 3 batches in total; each batch of animals were randomly divided into 5 groups; low, middle and high-dose groups of the samples for test, blank control group and model group; a sample for test was tested per batch.
3.1 Animals were administrated via subcutaneous injection per day with doses of 4, 8 and 16 mg/kg for 6 d in total. 2 h later after the final administration, each animal was subcutaneously injected with 4 mg/kg reserpine except the blank control group; afterwards, indicators, such as, awakening, finger contact, fear, head touch, autonomic activity, upright and eyelid closure were determined 2 h later.
Data statistics and analysis were completed via a computer by SPSS 17.0 software and office 2016, and data statistics was inspected by Kruskal-Wallis. If the Kruskal-Wallis inspection result is significant ((P<0.05), multiple comparison inspection is further performed by a Mann-Whitney U nonparametric test method.

| SMILES | accumulated immobility time of mice forced swimming test, in words ([1]; 5 mg/kg intragastric 10 d, P<0.05) | Accumulated immobility time [1] [S] | Accumulated immobility time [2] [S] | IC50 [3] [µM] | content in the brain, ranking of the test substances [4] | content in the brain (tissue distribution) ([4]; 1.0 h) | content in the brain (tissue distribution) ([4]; 2.0 h) | content in the brain (tissue distribution) ([4]; 5.0 h) | effect on reserpine-induced depression (conclusion) ([5]; 4, 8 and 16 mg/kg sc 6 d) | Eyelid closure ([5]; high dose 16 mg/kg sc 6 d) | Eyelid closure ([5]; low dose 4 mg/kg sc 6 d) | Eyelid closure ([5]; middle dose 8 mg/kg sc 6 d) |
| --- | --- | --- | --- | --- | --- | --- | --- | --- | --- | --- | --- | --- |
| CNCCC(Oc1ccc(C(F)(F)F)cc1)c1ccccc1 (stereo not drawn) [Fluoxetine hydrochloride capsule, Fluoxetine hydrochloride, reference compound] | obviously shorten | 92.64±29.17 | 92.19±23.63 |  |  |  |  |  |  |  |  |  |
| O=C(Nc1cccc(O)c1)C1CCN(C(=O)c2ccc(Cl)cc2)CC1 [MAGLZ-II-06] |  | 89.23±46.37 | 90.73±30.51 |  |  |  |  |  |  |  |  |  |
| COc1cccc(C(=O)N2CCC(C(=O)Nc3ccc(Cl)cc3)CC2)c1 [MAGLZ-II-07] |  | 91.31±41.85 | 89.66±31.52 |  |  |  |  |  |  |  |  |  |
| O=C(Nc1cccc(Cl)c1)C1CCN(C(=O)c2ccc3ccccc3c2)CC1 [MAGLZ-II-17] |  | 79.38±41.67 | 89.87±29.68 | 0.015 | ranking the second | 2.9 | 9.4 | 4.8 | may enhance the effect | 0.25±0.66 | 2.25±0.66 | 1±1.00 |
